Test results taken from patent publication US20050020550A1, “Selective testicular 11beta-HSD inhibitors and methods of use thereof” (priority 2003, published 2005).

What was measured:
11β-HSD2 Dehydrogenase = biological target: T1, 11β-HSD2 Dehydrogenase (Homo sapiens, UniProt P80365); assay: Inhibition of 11β-HSD2 dehydrogenase (Table 1); format: biochemical
T1 sequence (P80365 1-405): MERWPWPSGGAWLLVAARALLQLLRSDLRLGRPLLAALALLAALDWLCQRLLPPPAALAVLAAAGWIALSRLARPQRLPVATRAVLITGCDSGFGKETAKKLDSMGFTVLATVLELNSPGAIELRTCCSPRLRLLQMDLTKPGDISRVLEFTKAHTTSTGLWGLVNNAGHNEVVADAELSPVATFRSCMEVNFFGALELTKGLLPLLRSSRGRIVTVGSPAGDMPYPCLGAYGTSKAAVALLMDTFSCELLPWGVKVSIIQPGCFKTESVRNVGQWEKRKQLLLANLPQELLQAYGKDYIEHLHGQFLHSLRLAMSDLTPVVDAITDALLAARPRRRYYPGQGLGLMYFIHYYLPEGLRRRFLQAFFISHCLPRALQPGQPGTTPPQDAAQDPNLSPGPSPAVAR

11β-HSD1 Dehydrogenase = biological target: T2, 11β-HSD1 Dehydrogenase (Rattus norvegicus, UniProt P16232); assay: Inhibition of 11β-HSD1 dehydrogenase (Table 1); format: cell-based
T2 construct: an enzyme present in testicular Leydig cells; endogenous in cells; host or cells: freshly prepared rat Leydig cells

11β-HSD1 Reductase = biological target: T3, 11β-HSD1 Reductase (Rattus norvegicus, UniProt P16232); assay: Inhibition of 11β-HSD1 reductase (Table 1); format: cell-based
T3 construct: an enzyme present in testicular Leydig cells; endogenous in cells; host or cells: freshly prepared rat Leydig cells
T3 sequence (P16232 whole entry): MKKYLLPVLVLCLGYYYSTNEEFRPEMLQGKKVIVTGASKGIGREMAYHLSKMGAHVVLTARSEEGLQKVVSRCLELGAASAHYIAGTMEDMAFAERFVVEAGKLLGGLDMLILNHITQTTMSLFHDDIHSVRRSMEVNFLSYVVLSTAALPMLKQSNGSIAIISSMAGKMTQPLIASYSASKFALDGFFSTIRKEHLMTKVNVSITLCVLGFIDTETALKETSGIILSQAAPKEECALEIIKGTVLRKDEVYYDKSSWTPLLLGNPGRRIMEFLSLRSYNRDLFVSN

T2 sequence (P16232 whole entry): as above

## C[C@]12CCC(=O)C=C1CC[C@@H]1[C@H]2C(=O)C[C@]2(C)C(=O)CC[C@H]12 (stereo in doubt) [11-Keto-androstenedione]
11β-HSD2 Dehydrogenase
  11β-HSD2 Dehydrogenase (inhibition): No Inhibition
11β-HSD1 Dehydrogenase
  11β-HSD1 Dehydrogenase (inhibition): No Inhibition
11β-HSD1 Reductase
  11β-HSD1 Reductase (inhibition): Selective Inhibitor

## C[C@]12CC[C@@H]3[C@@H]([C@@H](O)C[C@]4(C=O)[C@@H](C(=O)CO)CC[C@H]34)[C@@]1(C)CC[C@H](O)C2 [3α,5α-reduced aldosterone]
11β-HSD2 Dehydrogenase
  11β-HSD2 Dehydrogenase (inhibition): Potent Inhibitor
11β-HSD1 Dehydrogenase
  11β-HSD1 Dehydrogenase (inhibition): Moderate Inhibitor
11β-HSD1 Reductase
  11β-HSD1 Reductase (inhibition): No Inhibition

## C[C@]12CC[C@H](O)C[C@@H]1CC[C@@H]1[C@@H]2C(=O)C[C@]2(C)C(=O)CC[C@@H]12 [3α,5α-reduced-11-keto-androstenedione]
11β-HSD1 Dehydrogenase
  11β-HSD1 Dehydrogenase (inhibition): No Inhibition
11β-HSD1 Reductase
  11β-HSD1 Reductase (inhibition): Selective Inhibitor

## CC(=O)[C@H]1CC[C@@H]2[C@@H]3CC[C@@H]4C[C@@H](O)CC[C@]4(C)[C@@H]3C(=O)C[C@]12C [3α,5α-reduced-11-keto-progesterone]
11β-HSD2 Dehydrogenase
  11β-HSD2 Dehydrogenase (inhibition): Potent Inhibitor
11β-HSD1 Dehydrogenase
  11β-HSD1 Dehydrogenase (inhibition): No Inhibition
11β-HSD1 Reductase
  11β-HSD1 Reductase (inhibition): Selective Inhibitor

## C[C@]12CC[C@H](O)C[C@@H]1CC[C@H]1[C@@H]3CC[C@H](O)[C@@]3(C)CC(=O)[C@@H]12 [3α,5α-reduced-11-keto-testosterone]
11β-HSD1 Dehydrogenase
  11β-HSD1 Dehydrogenase (inhibition): No Inhibition
11β-HSD1 Reductase
  11β-HSD1 Reductase (inhibition): Selective Inhibitor

## C[C@]12CC[C@H](O)C[C@H]1CC[C@@H]1[C@H]2[C@@H](O)C[C@]2(C)C(=O)CC[C@H]12 [3α,5α-reduced- 11β-OH—androstenedione]
11β-HSD2 Dehydrogenase
  11β-HSD2 Dehydrogenase (inhibition): Potent Inhibitor (Non-Selective)
11β-HSD1 Dehydrogenase
  11β-HSD1 Dehydrogenase (inhibition): Moderate Inhibitor
11β-HSD1 Reductase
  11β-HSD1 Reductase (inhibition): No Inhibition

## CC(=O)[C@H]1CC[C@@H]2[C@@H]3CC[C@@H]4C[C@@H](O)CC[C@]4(C)[C@@H]3[C@@H](O)C[C@]12C [3α,5α-reduced- 11β-OH—progesterone]
11β-HSD2 Dehydrogenase
  11β-HSD2 Dehydrogenase (inhibition): Potent Inhibitor (Non-Selective)
11β-HSD1 Dehydrogenase
  11β-HSD1 Dehydrogenase (inhibition): Potent Inhibitor (Non-Selective)
11β-HSD1 Reductase
  11β-HSD1 Reductase (inhibition): No Inhibition

## C[C@]12CC[C@H](O)C[C@H]1CC[C@@H]1[C@H]2[C@@H](O)C[C@@]2(C)[C@@H]1CC[C@@H]2O [3α,5α-reduced- 11β-OH—testosterone]
11β-HSD2 Dehydrogenase
  11β-HSD2 Dehydrogenase (inhibition): Potent Inhibitor (Non-Selective)
11β-HSD1 Dehydrogenase
  11β-HSD1 Dehydrogenase (inhibition): Potent Inhibitor (Non-Selective)
11β-HSD1 Reductase
  11β-HSD1 Reductase (inhibition): No Inhibition

## C[C@]12CC[C@H](O)C[C@@H]1CC[C@@H]1[C@@H]2[C@@H](O)C[C@]2(C)[C@@H](C(=O)CO)CC[C@@H]12 [3α,5α-reduced- corticosterone]
11β-HSD2 Dehydrogenase
  11β-HSD2 Dehydrogenase (inhibition): Potent Inhibitor
11β-HSD1 Dehydrogenase
  11β-HSD1 Dehydrogenase (inhibition): Potent Inhibitor
11β-HSD1 Reductase
  11β-HSD1 Reductase (inhibition): No Inhibition

## C[C@]12CC[C@H](O)C[C@@H]1CC[C@H]1[C@@H]3CC[C@H](C(=O)CO)[C@@]3(C)CC(=O)[C@@H]12 [3α,5α-tetrahydro-11-dehydro-corticosterone]
11β-HSD2 Dehydrogenase
  11β-HSD2 Dehydrogenase (inhibition): Potent Inhibitor
11β-HSD1 Dehydrogenase
  11β-HSD1 Dehydrogenase (inhibition): No Inhibition
11β-HSD1 Reductase
  11β-HSD1 Reductase (inhibition): Potent Inhibitor

## CC(=O)[C@H]1CC[C@@H]2[C@@H]3CC[C@@H]4C[C@@H](O)CC[C@]4(C)[C@@H]3[C@@H](O)C[C@]12C [3α,5β-reduced- 11β-OH—progesterone]
11β-HSD2 Dehydrogenase
  11β-HSD2 Dehydrogenase (inhibition): No Inhibition
11β-HSD1 Dehydrogenase
  11β-HSD1 Dehydrogenase (inhibition): Moderate Inhibitor
11β-HSD1 Reductase
  11β-HSD1 Reductase (inhibition): No Inhibition

## C[C@]12CC[C@H](O)C[C@H]1CC[C@@H]1[C@H]2[C@@H](O)C[C@@]2(C)[C@@H]1CC[C@@H]2O [3α,5β-reduced- 11β-OH—testosterone]
11β-HSD2 Dehydrogenase
  11β-HSD2 Dehydrogenase (inhibition): No Inhibition
11β-HSD1 Dehydrogenase
  11β-HSD1 Dehydrogenase (inhibition): Moderate Inhibitor
11β-HSD1 Reductase
  11β-HSD1 Reductase (inhibition): No Inhibition

## C[C@]12CCC(=O)C[C@@H]1CC[C@@H]1[C@@H]2[C@@H](O)C[C@]2(C)[C@@H](C(=O)CO)CC[C@@H]12 [5α-dihydro- corticosterone]
11β-HSD2 Dehydrogenase
  11β-HSD2 Dehydrogenase (inhibition): Potent Inhibitor
11β-HSD1 Dehydrogenase
  11β-HSD1 Dehydrogenase (inhibition): Potent Inhibitor
11β-HSD1 Reductase
  11β-HSD1 Reductase (inhibition): No inhibition

## C[C@]12CC(=O)[C@@H]3[C@@H](CCC4=CC(=O)CC[C@@]43C)[C@H]1CC[C@@H]2O [11-Keto-testosterone]
11β-HSD2 Dehydrogenase
  11β-HSD2 Dehydrogenase (inhibition): No Inhibition
11β-HSD1 Dehydrogenase
  11β-HSD1 Dehydrogenase (inhibition): No Inhibition
11β-HSD1 Reductase
  11β-HSD1 Reductase (inhibition): Selective Inhibitor

## CC(=O)[C@H]1CC[C@@H]2[C@@H]3CCC4=CC(=O)CC[C@]4(C)[C@@H]3[C@@H](O)C[C@]12C [11β-OH—progesterone]
11β-HSD1 Dehydrogenase
  11β-HSD1 Dehydrogenase (inhibition): Potent Inhibitor (Non-Selective)
11β-HSD1 Reductase
  11β-HSD1 Reductase (inhibition): No Inhibition

## C[C@]12C[C@H](O)[C@@H]3[C@@H](CCC4=CC(=O)CC[C@@]43C)[C@H]1CC[C@@H]2O [11β-OH—testosterone]
11β-HSD2 Dehydrogenase
  11β-HSD2 Dehydrogenase (inhibition): Inhibitor (Non-Selective)
11β-HSD1 Dehydrogenase
  11β-HSD1 Dehydrogenase (inhibition): Inhibitor (Non-Selective)
11β-HSD1 Reductase
  11β-HSD1 Reductase (inhibition): No Inhibition

## C[C@H](CCC(=O)O)[C@H]1CC[C@H]2[C@@H]3[C@H](O)C[C@@H]4C[C@H](O)CC[C@]4(C)[C@H]3CC[C@]12C [chenodeoxycholic acid]
11β-HSD2 Dehydrogenase
  11β-HSD2 Dehydrogenase (inhibition): No Inhibition
11β-HSD1 Dehydrogenase
  11β-HSD1 Dehydrogenase (inhibition): Selective inhibitor
11β-HSD1 Reductase
  11β-HSD1 Reductase (inhibition): No Inhibition
